# Measured values reported in ChEMBL document CHEMBL5500393, “Discovery and Optimization of Novel SaFabI Inhibitors as Specific Therapeutic Agents for MRSA Infection” (J Med Chem, 2024).
# Columns and labels:
# [1] = tested on: Staphylococcus aureus; assay: Antimicrobial activity against […] Staphylococcus aureus ATCC43300 measured after 24 hrs by CLSI protocol based microdilution method; assay type: functional
# [2] = tested on: Staphylococcus aureus; assay: Antimicrobial activity against […] Staphylococcus aureus ATCC33591 measured after 24 hrs by CLSI protocol based microdilution method; assay type: functional
# [3] = tested on: Enterococcus faecalis; assay: Antimicrobial activity against Enterococcus faecalis ATCC29212 measured after 24 hrs by CLSI protocol based microdilution method; assay type: functional
# [4] = Selectivity index, ratio of HC50 for sheep erythrocytes to MIC for Staphylococcus aureus; assay type: toxicity; settings: read-out: Selectivity Index
# [5] = Hemolytic activity in sheep erythrocytes assessed as hemolysis at 128 ug/ml incubated for 1 hr by microplate reader based analysis relative to control; assay type: toxicity, cell-based, Ovis aries, Erythrocyte; settings: at 128 µg/mL, read-out: Activity
# [6] = target: T1, Enoyl-[acyl-carrier-protein] reductase [NADPH] FabI (Staphylococcus aureus, UniProt Q6GI75); assay: Inhibition of N-terminal his 6 tagged Staphylococcus aureus Fabi (1 to […] residues) expressed in Escherichia coli BL21 incubated for 30 mins in presence of NADPH by fluorescence based microplate reader analysis
# T1 sequence (Q6GI75 whole entry): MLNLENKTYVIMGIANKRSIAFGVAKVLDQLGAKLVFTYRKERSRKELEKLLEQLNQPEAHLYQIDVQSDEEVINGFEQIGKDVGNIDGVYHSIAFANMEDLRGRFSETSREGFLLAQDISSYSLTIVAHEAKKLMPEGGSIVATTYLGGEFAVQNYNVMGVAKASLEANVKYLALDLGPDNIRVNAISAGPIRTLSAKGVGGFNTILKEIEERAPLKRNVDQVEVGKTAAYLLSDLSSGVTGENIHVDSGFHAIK
# [7] = tested on: HepG2; assay: Cytotoxicity against human HepG2 cells assessed as survival rate at 400 uM measured after 48 hrs by CCK-8 method relative to control; assay type: functional; settings: read-out: Survival
# [8] = tested on: Staphylococcus aureus; assay: Antimicrobial activity against Staphylococcus aureus measured after 24 hrs by CLSI protocol based microdilution method; assay type: functional
# [9] = tested on: Staphylococcus aureus; assay: Antimicrobial activity against methicillin-susceptible Staphylococcus aureus ATCC25923 measured after 24 hrs by CLSI protocol based microdilution method; assay type: functional
# [10] = Hemolytic activity in sheep erythrocytes assessed as hemolysis at 256 ug/ml incubated for 1 hr by microplate reader based analysis relative to control; assay type: toxicity, cell-based, Ovis aries, Erythrocyte; settings: at 256 µg/mL, read-out: Activity
# [11] = tested on: Enterococcus faecium; assay: Antimicrobial activity against Enterococcus faecium ATCC19434 measured after 24 hrs by CLSI protocol based microdilution method; assay type: functional
# [12] = Hemolytic activity in sheep erythrocytes assessed as hemolysis incubated for 1 hr by microplate reader based analysis; assay type: toxicity, cell-based, Ovis aries, Erythrocyte
# [13] = tested on: Staphylococcus aureus; assay: Antimicrobial activity against […] Staphylococcus aureus USA300 measured after 24 hrs by CLSI protocol based microdilution method; assay type: functional
# [14] = tested on: Staphylococcus aureus; assay: Antimicrobial activity against methicillin-susceptible Staphylococcus aureus ATCC29213 measured after 24 hrs by CLSI protocol based microdilution method; assay type: functional
# [15] = tested on: Candida albicans; assay: Antimicrobial activity against Candida albicans SC5314 measured after 48 hrs by CLSI protocol based microdilution method; assay type: functional
# [16] = tested on: Pseudomonas aeruginosa; assay: Antimicrobial activity against Pseudomonas aeruginosa PAO1 measured after 24 hrs by CLSI protocol based microdilution method; assay type: functional
# [17] = tested on: Escherichia coli; assay: Antimicrobial activity against Escherichia coli ATCC25922 measured after 24 hrs by CLSI protocol based microdilution method; assay type: functional
# [18] = tested on: Staphylococcus aureus; assay: Antimicrobial activity against […] Staphylococcus aureus NRS271 measured after 24 hrs by CLSI protocol based microdilution method; assay type: functional
# [19] = Cytotoxicity against HEK293 cells assessed as survival rate at 400 uM measured after 48 hrs by CCK-8 method relative to control; assay type: toxicity, cell-based; settings: human, read-out: Survival
# [20] = Cytotoxicity against HEK293 cells assessed as survival rate at 800 uM measured after 48 hrs by CCK-8 method relative to control; assay type: toxicity, cell-based; settings: human, read-out: Survival
# [21] = target: T2, Enoyl-[acyl-carrier-protein] reductase [NADPH] FabI (Staphylococcus aureus) (UniProt Q6GI75); assay: Inhibition of N-terminal his 6 tagged Staphylococcus aureus Fabi (1 to […] residues) expressed in Escherichia coli BL21 at 1 uM incubated for 30 mins in presence of NADPH by fluorescence based microplate reader analysis relative to control
# T2 sequence (whole entry): T1 sequence (Q6GI75 whole entry)
# [22] = target: T2, Enoyl-[acyl-carrier-protein] reductase [NADPH] FabI (Staphylococcus aureus); assay: Inhibition of N-terminal his 6 tagged Staphylococcus aureus Fabi (1 to […] residues) expressed in Escherichia coli BL21 at 10 uM incubated for 30 mins in presence of NADPH by fluorescence based microplate reader analysis relative to control
# [23] = Inhibition of N-terminal his 6 tagged Escherichia coli Fabi (1 to 789 residues) expressed in Escherichia coli BL21 incubated for 30 mins in presence of NADH by fluorescence based microplate reader analysis
# [24] = tested on: HepG2; assay: Cytotoxicity against human HepG2 cells assessed as survival rate at 800 uM measured after 48 hrs by CCK-8 method relative to control; assay type: functional; settings: read-out: Survival
# [25] = tested on: Acinetobacter baumannii; assay: Antimicrobial activity against Acinetobacter baumannii ATCC19606 measured after 24 hrs by CLSI protocol based microdilution method; assay type: functional
# [26] = Hemolytic activity in sheep erythrocytes assessed as hemolysis at 64 ug/ml incubated for 1 hr by microplate reader based analysis relative to control; assay type: toxicity, cell-based, Ovis aries, Erythrocyte; settings: at 64 µg/mL, read-out: Activity
# [27] = Inhibition of N-terminal his 6 tagged Acinetobacter baumannii Fabi (1 to 804 residues) expressed in Escherichia coli BL21 incubated for 30 mins in presence of NADH by fluorescence based microplate reader analysis
smiles,measurement,setting,value
Cn1c(C2CC(=O)N(c3cccc(Br)c3Cl)C2)nc2ccccc21 (stereo not given),MIC,[1],2 mg/L
same,MIC,[2],2 mg/L
same,MIC,[3],> 32 mg/L
same,selectivity ratio,[4],> 64
same,"hemolysis at 1 h, 128 ug/ml",[5],4.7%
same,IC50,[6],0.331 µM
same,viability at 400 µM,[7],> 70%
same,MIC,[8],1 mg/L
same,MIC,[9],1 mg/L
same,"hemolysis at 1 h, 256 ug/ml",[10],10.6%
same,MIC,[11],> 32 mg/L
same,HC50 at 1 h,[12],> 256 µg/mL
same,MIC,[13],1 mg/L
same,MIC,[14],2 mg/L
same,MIC,[15],> 32 mg/L
same,MIC,[16],> 32 mg/L
same,MIC,[17],> 32 mg/L
same,MIC,[18],4 mg/L
same,"viability at 48 h, 400 µM",[19],> 70%
same,"viability at 48 h, 800 µM",[20],> 75%
same,inhibition,[21],80.3%
same,inhibition,[22],97.4%
same,IC50,[23],0.0359 µM
same,viability at 800 µM,[24],> 75%
same,MIC,[25],> 32 mg/L
same,"hemolysis at 1 h, 64 ug/ml",[26],2.8%
same,IC50,[27],0.266 µM
Cc1c(Cl)cccc1N1CC(c2nc3ccccc3n2C)CC1=O (stereo not given),MIC,[1],2 mg/L
same,MIC,[2],2 mg/L
same,MIC,[3],> 32 mg/L
same,selectivity ratio,[4],> 64
same,"hemolysis at 1 h, 128 ug/ml",[5],6.9%
same,IC50,[6],0.429 µM
same,viability at 400 µM,[7],> 70%
same,MIC,[8],2 mg/L
same,MIC,[9],2 mg/L
same,"hemolysis at 1 h, 256 ug/ml",[10],13.2%
same,MIC,[11],> 32 mg/L
same,HC50 at 1 h,[12],> 256 µg/mL
same,MIC,[13],4 mg/L
same,MIC,[14],2 mg/L
same,MIC,[15],> 32 mg/L
same,MIC,[16],> 32 mg/L
same,MIC,[17],> 32 mg/L
same,MIC,[18],4 mg/L
same,"viability at 48 h, 400 µM",[19],> 70%
same,"viability at 48 h, 800 µM",[20],> 65%
same,inhibition,[21],76.8%
same,inhibition,[22],99.1%
same,IC50,[23],0.0359 µM
same,viability at 800 µM,[24],> 65%
same,MIC,[25],> 32 mg/L
same,"hemolysis at 1 h, 64 ug/ml",[26],3.8%
same,IC50,[27],0.266 µM
CCn1c(C2CC(=O)N(c3cccc(Br)c3C)C2)nc2ccccc21 (stereo not given),MIC,[1],2 mg/L
same,MIC,[2],1 mg/L
same,MIC,[3],> 32 mg/L
same,selectivity ratio,[4],> 128
same,"hemolysis at 1 h, 128 ug/ml",[5],7.5%
same,IC50,[6],0.342 µM
same,viability at 400 µM,[7],> 70%
same,MIC,[8],1 mg/L
same,MIC,[9],2 mg/L
same,"hemolysis at 1 h, 256 ug/ml",[10],12.7%
same,MIC,[11],> 32 mg/L
same,HC50 at 1 h,[12],> 256 µg/mL
same,MIC,[13],1 mg/L
same,MIC,[14],2 mg/L
same,MIC,[15],> 32 mg/L
same,MIC,[16],> 32 mg/L
same,MIC,[17],> 32 mg/L
same,MIC,[18],2 mg/L
same,"viability at 48 h, 400 µM",[19],> 70%
same,"viability at 48 h, 800 µM",[20],> 65%
same,inhibition,[21],82.5%
same,inhibition,[22],96.3%
same,IC50,[23],0.0359 µM
same,viability at 800 µM,[24],> 65%
same,MIC,[25],> 32 mg/L
same,"hemolysis at 1 h, 64 ug/ml",[26],4.3%
same,IC50,[27],0.266 µM
Cn1c(C2CC(=O)N(c3cccc(Br)c3F)C2)nc2ccccc21 (stereo not given),MIC,[1],4 mg/L
same,MIC,[2],4 mg/L
same,MIC,[3],> 32 mg/L
same,IC50,[6],0.482 µM
same,MIC,[9],2 mg/L
same,MIC,[11],> 32 mg/L
same,MIC,[13],4 mg/L
same,MIC,[14],2 mg/L
same,MIC,[15],> 32 mg/L
same,MIC,[16],> 32 mg/L
same,MIC,[17],> 32 mg/L
same,MIC,[18],8 mg/L
same,inhibition,[21],71.2%
same,inhibition,[22],95.3%
same,IC50,[23],0.0359 µM
same,MIC,[25],> 32 mg/L
same,IC50,[27],0.266 µM
Cn1c(C2CC(=O)N(c3cccc(Cl)c3Cl)C2)nc2ccccc21 (stereo not given),MIC,[1],2 mg/L
same,MIC,[2],4 mg/L
same,MIC,[3],> 32 mg/L
same,selectivity ratio,[4],> 64
same,"hemolysis at 1 h, 128 ug/ml",[5],4.3%
same,IC50,[6],0.495 µM
same,viability at 400 µM,[7],> 70%
same,MIC,[8],2 mg/L
same,MIC,[9],2 mg/L
same,"hemolysis at 1 h, 256 ug/ml",[10],7.5%
same,MIC,[11],> 32 mg/L
same,HC50 at 1 h,[12],> 256 µg/mL
same,MIC,[13],2 mg/L
same,MIC,[14],2 mg/L
same,MIC,[15],> 32 mg/L
same,MIC,[16],> 32 mg/L
same,MIC,[17],> 32 mg/L
same,MIC,[18],4 mg/L
same,"viability at 48 h, 400 µM",[19],> 70%
same,"viability at 48 h, 800 µM",[20],> 75%
same,inhibition,[21],73.7%
same,inhibition,[22],98.8%
same,IC50,[23],0.0359 µM
same,viability at 800 µM,[24],> 75%
same,MIC,[25],> 32 mg/L
same,"hemolysis at 1 h, 64 ug/ml",[26],2.4%
same,IC50,[27],0.266 µM
